Measurements taken from patent publication US20260022142A1, “MACROCYCLIC IMMUNOMODULATORS” (Bristol-Myers Squibb Company, priority 2022, published 2026).
pIC50: −log10 of the molar value. Bridge positions count the residues as written; N and C are the ends. Square brackets hold non-standard residues; d marks the D form. Peptide text beside a SMILES is read from it. * marks the point of attachment. ξ: configuration not given here. Phe(4-COOH) = N[C@@H](Cc1ccc(C(=O)O)cc1)C(=O)O; Bip = N[C@@H](Cc1ccc(-c2ccccc2)cc1)C(=O)O; Phe(3-Me) = Cc1cccc(C[C@H](N)C(=O)O)c1; Cha = N[C@@H](CC1CCCCC1)C(=O)O; Cit = NC(=O)NCCC[C@H](N)C(=O)O; Thr(3ξ) = CC(O)[C@H](N)C(=O)O; hSer = N[C@@H](CCO)C(=O)O; Carboxymethyl = O=C(O)C*; Orn = NCCC[C@H](N)C(=O)O; Aun = NCCCCCCCCCCC(=O)O; Dab = NCC[C@H](N)C(=O)O; AEEA = NCCOCCOCC(=O)O

Molecular target: T1, PD-1/PD-L1 interaction (PE-labeled human PD-L1-Ig binding to Jurkat cell line over-expressing human PD-1) (Homo sapiens, UniProt Q15116)
T1 construct: expressed in transfected cells; host or cells: Jurkat
T1 sequence (Q15116 25-288): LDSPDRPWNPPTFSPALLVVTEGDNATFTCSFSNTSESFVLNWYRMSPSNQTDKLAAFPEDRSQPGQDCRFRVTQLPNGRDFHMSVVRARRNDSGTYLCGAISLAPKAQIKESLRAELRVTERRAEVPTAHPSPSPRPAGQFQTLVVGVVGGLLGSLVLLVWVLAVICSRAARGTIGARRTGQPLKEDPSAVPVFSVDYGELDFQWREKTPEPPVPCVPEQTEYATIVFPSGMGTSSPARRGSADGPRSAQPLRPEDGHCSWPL
Experiment: Jurkat-PD-1 Cell Binding High-Content Screening Assay (CBA)
Assay type: cell-based
Conditions: Jurkat cell line over-expressing human PD-1; PE-labeled PD-L1-Ig 20 nM final; read-out: Jurkat hPD1-PDL1 IC50
Summary of the method: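 Jurkat-hPD-1 cells, DMEM/10% FCS; cpd 2 h 37° C; PE-PD-L1-Ig 20 nM final, 1 h; 4% PFA fix + Hoechst 33342, 3× dPBS wash; high-content imaging read-out.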

| Compound | pIC50 |
| --- | --- |
| Cc1cccc(C[C@@H]2NC(=O)[C@H](CC(=O)O)NC(=O)[C@H](Cc3ccc(OCC(=O)O)cc3)NC(=O)[C@H](CCCNC(=N)N)NC(=O)CSC[C@@H](C(=O)NCCOCCOCC(=O)NCCCCCCCCCCC(=O)O)NC(=O)[C@H](C(C)O)NC(=O)[C@H](C(C)C)NC(=O)[C@H](CC3CCCCC3)NC(=O)[C@H](CCN)NC(=O)[C@@H](CC(C)C)NC(=O)[C@H](CCCN)NC(=O)[C@H](Cc3ccc(OCC(=O)O)cc3)NC(=O)[C@H](Cc3ccc(-c4ccccc4)cc3)NC(=O)[C@H](Cc3ccc(OCC(=O)O)cc3)NC2=O)c1 (stereo partly drawn) [Compound 3477] ({CH2CO}-RY(Carboxymethyl)D[Phe(3-Me)]Y(Carboxymethyl)[Bip]Y(Carboxymethyl)[Orn][dL][Dab][Cha]V[Thr(3ξ)]C[AEEA][Aun]-OH; thioether N-14) | 7.42 |
| Cc1cccc(C[C@@H]2NC(=O)[C@H](CC(=O)O)NC(=O)[C@H](Cc3ccc(OCC(=O)O)cc3)NC(=O)[C@H](C(C)O)NC(=O)CSC[C@@H](C(=O)NCCOCCOCC(=O)NCCCCCCCCCCC(=O)O)NC(=O)[C@H](C(C)O)NC(=O)[C@H](C(C)C)NC(=O)[C@H](CC3CCCCC3)NC(=O)[C@H](CCN)NC(=O)[C@@H](CC(C)C)NC(=O)[C@H](CCCN)NC(=O)[C@H](Cc3ccc(OCC(=O)O)cc3)NC(=O)[C@H](Cc3ccc(-c4ccccc4)cc3)NC(=O)[C@H](Cc3ccc(OCC(=O)O)cc3)NC2=O)c1 (stereo partly drawn) [Compound 3478] ({CH2CO}-[Thr(3ξ)]Y(Carboxymethyl)D[Phe(3-Me)]Y(Carboxymethyl)[Bip]Y(Carboxymethyl)[Orn][dL][Dab][Cha]V[Thr(3ξ)]C[AEEA][Aun]-OH; thioether N-14) | 7.68 |
| Cc1cccc(C[C@@H]2NC(=O)[C@H](CC(=O)O)NC(=O)[C@H](Cc3ccc(OCC(=O)O)cc3)NC(=O)[C@H](CCCNC(=N)N)NC(=O)CSC[C@@H](C(=O)NCCOCCOCC(=O)NCCCCCCCCCCC(=O)O)NC(=O)[C@H](C(C)O)NC(=O)[C@H](C(C)C)NC(=O)[C@H](CC3CCCCC3)NC(=O)[C@H](CCN)NC(=O)[C@@H](CC(C)C)NC(=O)[C@H](CCCN)NC(=O)[C@H](Cc3ccc(OCC(=O)O)cc3)NC(=O)[C@H](Cc3ccc(-c4ccccc4)cc3)NC(=O)[C@H](Cc3ccc(C(=O)O)cc3)NC2=O)c1 (stereo partly drawn) [Compound 3479] ({CH2CO}-RY(Carboxymethyl)D[Phe(3-Me)][Phe(4-COOH)][Bip]Y(Carboxymethyl)[Orn][dL][Dab][Cha]V[Thr(3ξ)]C[AEEA][Aun]-OH; thioether N-14) | 7.22 |
| Cc1cccc(C[C@@H]2NC(=O)[C@H](CC(=O)O)NC(=O)[C@H](Cc3ccc(OCC(=O)O)cc3)NC(=O)[C@H](CCCNC(=N)N)NC(=O)CSC[C@@H](C(=O)NCCOCCOCC(=O)NCCCCCCCCCCC(=O)O)NC(=O)[C@H](C(C)O)NC(=O)[C@H](C(C)C)NC(=O)[C@H](CC3CCCCC3)NC(=O)[C@H](CCN)NC(=O)[C@@H](CC(C)C)NC(=O)[C@H](CCCNC(N)=O)NC(=O)[C@H](Cc3ccc(OCC(=O)O)cc3)NC(=O)[C@H](Cc3ccc(-c4ccccc4)cc3)NC(=O)[C@H](C(C)C)NC2=O)c1 (stereo partly drawn) [Compound 3480] ({CH2CO}-RY(Carboxymethyl)D[Phe(3-Me)]V[Bip]Y(Carboxymethyl)[Cit][dL][Dab][Cha]V[Thr(3ξ)]C[AEEA][Aun]-OH; thioether N-14) | 7.76 |
| Cc1cccc(C[C@@H]2NC(=O)[C@H](CC(=O)O)NC(=O)[C@H](Cc3ccc(OCC(=O)O)cc3)NC(=O)[C@H](CCCNC(=N)N)NC(=O)CSC[C@@H](C(=O)NCCOCCOCC(=O)NCCCCCCCCCCC(=O)O)NC(=O)[C@H](C(C)O)NC(=O)[C@H](C(C)C)NC(=O)[C@H](CC3CCCCC3)NC(=O)[C@H](CCN)NC(=O)[C@@H](CC(C)C)NC(=O)[C@H](CCCNC(N)=O)NC(=O)[C@H](Cc3ccc(OCC(=O)O)cc3)NC(=O)[C@H](Cc3ccc(-c4ccccc4)cc3)NC(=O)[C@H](Cc3ccc(OCC(=O)O)cc3)NC2=O)c1 (stereo partly drawn) [Compound 3481] ({CH2CO}-RY(Carboxymethyl)D[Phe(3-Me)]Y(Carboxymethyl)[Bip]Y(Carboxymethyl)[Cit][dL][Dab][Cha]V[Thr(3ξ)]C[AEEA][Aun]-OH; thioether N-14) | 7.15 |
| Cc1cccc(C[C@@H]2NC(=O)[C@H](CC(=O)O)NC(=O)[C@H](Cc3ccc(OCC(=O)O)cc3)NC(=O)[C@H](C(C)O)NC(=O)CSC[C@@H](C(=O)N[C@@H](CCN)C(=O)NCCCCCCCCCCC(=O)O)NC(=O)[C@H](CCO)NC(=O)[C@H](C(C)C)NC(=O)[C@H](CC3CCCCC3)NC(=O)[C@H](CCN)NC(=O)[C@@H](CC(C)C)NC(=O)[C@H](CCCN)NC(=O)[C@H](Cc3ccc(OCC(=O)O)cc3)NC(=O)[C@H](Cc3ccc(-c4ccccc4)cc3)NC(=O)[C@H](Cc3ccc(OCC(=O)O)cc3)NC2=O)c1 (stereo partly drawn) [Compound 3482] ({CH2CO}-[Thr(3ξ)]Y(Carboxymethyl)D[Phe(3-Me)]Y(Carboxymethyl)[Bip]Y(Carboxymethyl)[Orn][dL][Dab][Cha]V[hSer]C[Dab][Aun]-OH; thioether N-14) | 8.12 |
| Cc1cccc(C[C@@H]2NC(=O)[C@H](CC(=O)O)NC(=O)[C@H](Cc3ccc(OCC(=O)O)cc3)NC(=O)[C@H](C(C)O)NC(=O)CSC[C@@H](C(=O)N[C@@H](CCN)C(=O)NCCCCCCCCCCC(=O)O)NC(=O)[C@H](CCO)NC(=O)[C@H](C(C)C)NC(=O)[C@H](CC3CCCCC3)NC(=O)[C@H](CCN)NC(=O)[C@@H](CC(C)C)NC(=O)[C@H](CCCN)NC(=O)[C@H](Cc3ccc(OCC(=O)O)cc3)NC(=O)[C@H](Cc3ccc(-c4ccccc4)cc3)NC(=O)[C@H](Cc3ccc(C(=O)O)cc3)NC2=O)c1 (stereo partly drawn) [Compound 3483] ({CH2CO}-[Thr(3ξ)]Y(Carboxymethyl)D[Phe(3-Me)][Phe(4-COOH)][Bip]Y(Carboxymethyl)[Orn][dL][Dab][Cha]V[hSer]C[Dab][Aun]-OH; thioether N-14) | 8.02 |
| Cc1cccc(C[C@@H]2NC(=O)[C@H](CC(=O)O)NC(=O)[C@H](Cc3ccc(OCC(=O)O)cc3)NC(=O)[C@H](C(C)O)NC(=O)CSC[C@@H](C(=O)N[C@@H](CCN)C(=O)NCCCCCCCCCCC(=O)O)NC(=O)[C@H](C(C)O)NC(=O)[C@H](C(C)C)NC(=O)[C@H](CC3CCCCC3)NC(=O)[C@H](CCN)NC(=O)[C@@H](CC(C)C)NC(=O)[C@H](CCCN)NC(=O)[C@H](Cc3ccc(OCC(=O)O)cc3)NC(=O)[C@H](Cc3ccc(-c4ccccc4)cc3)NC(=O)[C@H](Cc3ccc(C(=O)O)cc3)NC2=O)c1 (stereo partly drawn) [Compound 3484] ({CH2CO}-[Thr(3ξ)]Y(Carboxymethyl)D[Phe(3-Me)][Phe(4-COOH)][Bip]Y(Carboxymethyl)[Orn][dL][Dab][Cha]V[Thr(3ξ)]C[Dab][Aun]-OH; thioether N-14) | 8.17 |
| Cc1cccc(C[C@@H]2NC(=O)[C@H](CC(=O)O)NC(=O)[C@H](Cc3ccc(OCC(=O)O)cc3)NC(=O)[C@H](C(C)O)NC(=O)CSC[C@@H](C(=O)N[C@@H](CCN)C(=O)NCCCCCCCCCCC(=O)O)NC(=O)[C@H](C(C)O)NC(=O)[C@H](C(C)C)NC(=O)[C@H](CC3CCCCC3)NC(=O)[C@H](CCN)NC(=O)[C@@H](CC(C)C)NC(=O)[C@H](CCCN)NC(=O)[C@H](Cc3ccc(OCC(=O)O)cc3)NC(=O)[C@H](Cc3ccc(-c4ccccc4)cc3)NC(=O)[C@H](CCCNC(N)=O)NC2=O)c1 (stereo partly drawn) [Compound 3485] ({CH2CO}-[Thr(3ξ)]Y(Carboxymethyl)D[Phe(3-Me)][Cit][Bip]Y(Carboxymethyl)[Orn][dL][Dab][Cha]V[Thr(3ξ)]C[Dab][Aun]-OH; thioether N-14) | 7.79 |
| Cc1cccc(C[C@@H]2NC(=O)[C@H](CC(=O)O)NC(=O)[C@H](Cc3ccc(OCC(=O)O)cc3)NC(=O)[C@H](CCCNC(=N)N)NC(=O)CSC[C@@H](C(=O)N[C@@H](CCN)C(=O)NCCCCCCCCCCC(=O)O)NC(=O)[C@H](C(C)O)NC(=O)[C@H](C(C)C)NC(=O)[C@H](CC3CCCCC3)NC(=O)[C@H](CCN)NC(=O)[C@@H](CC(C)C)NC(=O)[C@H](CCCNC(N)=O)NC(=O)[C@H](Cc3ccc(OCC(=O)O)cc3)NC(=O)[C@H](Cc3ccc(-c4ccccc4)cc3)NC(=O)[C@H](Cc3ccc(OCC(=O)O)cc3)NC2=O)c1 (stereo partly drawn) [Compound 3486] ({CH2CO}-RY(Carboxymethyl)D[Phe(3-Me)]Y(Carboxymethyl)[Bip]Y(Carboxymethyl)[Cit][dL][Dab][Cha]V[Thr(3ξ)]C[Dab][Aun]-OH; thioether N-14) | 8.08 |
| Cc1cccc(C[C@@H]2NC(=O)[C@H](CC(=O)O)NC(=O)[C@H](Cc3ccc(OCC(=O)O)cc3)NC(=O)[C@H](C(C)O)NC(=O)CSC[C@@H](C(=O)N[C@@H](CCN)C(=O)NCCCCCCCCCCC(=O)O)NC(=O)[C@H](C(C)O)NC(=O)[C@H](C(C)C)NC(=O)[C@H](CC3CCCCC3)NC(=O)[C@H](CCN)NC(=O)[C@@H](CC(C)C)NC(=O)[C@H](CCCNC(N)=O)NC(=O)[C@H](Cc3ccc(OCC(=O)O)cc3)NC(=O)[C@H](Cc3ccc(-c4ccccc4)cc3)NC(=O)[C@H](Cc3ccc(OCC(=O)O)cc3)NC2=O)c1 (stereo partly drawn) [Compound 3487] ({CH2CO}-[Thr(3ξ)]Y(Carboxymethyl)D[Phe(3-Me)]Y(Carboxymethyl)[Bip]Y(Carboxymethyl)[Cit][dL][Dab][Cha]V[Thr(3ξ)]C[Dab][Aun]-OH; thioether N-14) | 7.51 |
| Cc1cccc(C[C@@H]2NC(=O)[C@H](CC(=O)O)NC(=O)[C@H](Cc3ccc(OCC(=O)O)cc3)NC(=O)[C@H](CCCNC(=N)N)NC(=O)CSC[C@@H](C(=O)N[C@H](CC(N)=O)C(=O)NCCCCCCCCCCC(=O)O)NC(=O)[C@H](C(C)O)NC(=O)[C@H](C(C)C)NC(=O)[C@H](CC3CCCCC3)NC(=O)[C@H](CCN)NC(=O)[C@@H](CC(C)C)NC(=O)[C@H](CCCN)NC(=O)[C@H](Cc3ccc(OCC(=O)O)cc3)NC(=O)[C@H](Cc3ccc(-c4ccccc4)cc3)NC(=O)[C@H](Cc3ccc(OCC(=O)O)cc3)NC2=O)c1 (stereo partly drawn) [Compound 3489] ({CH2CO}-RY(Carboxymethyl)D[Phe(3-Me)]Y(Carboxymethyl)[Bip]Y(Carboxymethyl)[Orn][dL][Dab][Cha]V[Thr(3ξ)]C[dN][Aun]-OH; thioether N-14) | 7.66 |
